The results in this text go back to patent US10167272B2, “Muscarinic agonists” (Heptares Therapeutics Limited, priority 2015, dated 2019).

Common to all, as to assay type: cell-based
Assay [1] deals with T1, human muscarinic M2 receptor (Homo sapiens, UniProt P08172).
T1 sequence (P08172 1-466): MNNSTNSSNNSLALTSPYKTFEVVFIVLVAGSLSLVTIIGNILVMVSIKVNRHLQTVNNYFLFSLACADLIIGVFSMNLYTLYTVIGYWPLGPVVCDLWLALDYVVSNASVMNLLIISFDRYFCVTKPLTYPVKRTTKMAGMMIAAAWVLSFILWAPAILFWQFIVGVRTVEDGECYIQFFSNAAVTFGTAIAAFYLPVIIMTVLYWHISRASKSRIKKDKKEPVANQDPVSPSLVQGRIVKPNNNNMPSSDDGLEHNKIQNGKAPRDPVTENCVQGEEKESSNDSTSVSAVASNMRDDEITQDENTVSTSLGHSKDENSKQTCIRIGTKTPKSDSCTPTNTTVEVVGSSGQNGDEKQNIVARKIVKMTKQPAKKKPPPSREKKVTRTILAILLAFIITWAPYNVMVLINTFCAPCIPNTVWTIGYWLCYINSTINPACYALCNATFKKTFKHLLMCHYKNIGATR
Nature of the assay: Alphascreen Surefire phospho-ERK1/2 functional assay, M2. The following applies: for EC50: CHO cells stably expressing human M2, read-out: pEC50 M2 (converted); for Emax: CHO, read-out: % Emax cf. ACh (M2), CHO cells stably expressing human M2, relative to ACh. As for the experimental part:
(§1) ERK1/2 phosphorylation is a downstream consequence of both Gq/11 and Gi/o protein coupled receptor activation, making it highly suitable for the assessment of M1, M3 (Gq/11 coupled) and M2, M4 receptors (Gi/o coupled), rather than using different assay formats for different receptor subtypes. CHO cells stably expressing the human muscarinic M1, M2, M3 or M4 receptor were plated (25K/well) onto 96-well tissue culture plates in MEM-alpha+10% dialysed FBS. Once adhered, cells were serum-starved overnight. Agonist stimulation was performed by the addition of 5 μL agonist to the cells for 5 min (37° C.). Media was removed and 50 μL of lysis buffer added. After 15 min, a 4 μL sample was transferred to 384-well plate and 7 μL of detection mixture added.
(In general: Bead proximity is the source of the signal in Alpha formats.)

In assay [2] the target is T2, human muscarinic M4 receptor (Homo sapiens, UniProt P08173).
T2 construct: expressed in transfected cells
T2 sequence (P08173 1-479): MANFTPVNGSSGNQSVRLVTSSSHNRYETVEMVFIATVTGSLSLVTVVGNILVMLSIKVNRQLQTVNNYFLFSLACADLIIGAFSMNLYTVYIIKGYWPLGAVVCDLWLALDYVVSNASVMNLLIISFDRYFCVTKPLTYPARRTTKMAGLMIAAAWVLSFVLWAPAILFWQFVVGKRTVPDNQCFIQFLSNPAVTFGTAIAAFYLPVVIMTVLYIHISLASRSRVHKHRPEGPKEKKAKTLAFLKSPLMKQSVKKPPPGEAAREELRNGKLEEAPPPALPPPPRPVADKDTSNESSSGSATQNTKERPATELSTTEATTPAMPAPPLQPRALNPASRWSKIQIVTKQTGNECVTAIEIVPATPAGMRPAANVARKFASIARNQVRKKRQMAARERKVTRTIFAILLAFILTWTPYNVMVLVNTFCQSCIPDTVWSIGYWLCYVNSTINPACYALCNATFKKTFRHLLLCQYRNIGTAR
As to the kind of experiment: Alphascreen Surefire phospho-ERK1/2 functional assay, M4. The conditions noted are these: phospho-ERK1/2; for EC50: read-out: pEC50 M4 (converted); for Emax: CHO, read-out: % Emax cf. ACh (M4), CHO cells stably expressing human M4; for Emax / % Emax cf. ACh (M4): relative to ACh.

In assay [3] the target is T3, human muscarinic M1 receptor (Homo sapiens, UniProt P11229).
T3 sequence (P11229 1-460): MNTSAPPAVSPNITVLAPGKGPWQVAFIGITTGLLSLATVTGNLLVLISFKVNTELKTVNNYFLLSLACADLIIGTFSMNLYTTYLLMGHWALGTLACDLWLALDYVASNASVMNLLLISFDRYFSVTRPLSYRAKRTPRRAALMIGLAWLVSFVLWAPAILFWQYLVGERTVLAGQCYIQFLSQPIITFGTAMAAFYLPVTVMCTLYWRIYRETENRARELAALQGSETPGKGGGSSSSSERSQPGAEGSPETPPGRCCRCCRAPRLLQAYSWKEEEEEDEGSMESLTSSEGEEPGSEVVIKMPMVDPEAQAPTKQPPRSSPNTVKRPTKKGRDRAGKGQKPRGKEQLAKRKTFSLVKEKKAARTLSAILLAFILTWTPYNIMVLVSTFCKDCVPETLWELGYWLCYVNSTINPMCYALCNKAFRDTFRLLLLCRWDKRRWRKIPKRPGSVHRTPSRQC
Nature of the assay: Alphascreen Surefire phospho-ERK1/2 functional assay, M1. The following applies: phospho-ERK1/2; for EC50: read-out: pEC50 M1 (converted); for Emax: CHO, read-out: % Emax cf. ACh (M1), CHO cells stably expressing human M1; for Emax / % Emax cf. ACh (M1): relative to ACh. How it is done:
as §1

For assay [4], the target named is T4, human muscarinic M3 receptor (Homo sapiens, UniProt P20309).
T4 construct: expressed in transfected cells
As to the kind of experiment: Alphascreen Surefire phospho-ERK1/2 functional assay, M3. The conditions noted are these: phospho-ERK1/2; for EC50: read-out: pEC50 M3 (converted); for Emax: CHO, read-out: % Emax cf. ACh (M3), CHO cells stably expressing human M3. As for the experimental part:
as §1

[5] abbreviates: CHO cells stably expressing human M4.
[6] abbreviates: CHO cells stably expressing human M1.
Where [7] appears, read: CHO cells stably expressing human M3.

T4 sequence (P20309 whole entry): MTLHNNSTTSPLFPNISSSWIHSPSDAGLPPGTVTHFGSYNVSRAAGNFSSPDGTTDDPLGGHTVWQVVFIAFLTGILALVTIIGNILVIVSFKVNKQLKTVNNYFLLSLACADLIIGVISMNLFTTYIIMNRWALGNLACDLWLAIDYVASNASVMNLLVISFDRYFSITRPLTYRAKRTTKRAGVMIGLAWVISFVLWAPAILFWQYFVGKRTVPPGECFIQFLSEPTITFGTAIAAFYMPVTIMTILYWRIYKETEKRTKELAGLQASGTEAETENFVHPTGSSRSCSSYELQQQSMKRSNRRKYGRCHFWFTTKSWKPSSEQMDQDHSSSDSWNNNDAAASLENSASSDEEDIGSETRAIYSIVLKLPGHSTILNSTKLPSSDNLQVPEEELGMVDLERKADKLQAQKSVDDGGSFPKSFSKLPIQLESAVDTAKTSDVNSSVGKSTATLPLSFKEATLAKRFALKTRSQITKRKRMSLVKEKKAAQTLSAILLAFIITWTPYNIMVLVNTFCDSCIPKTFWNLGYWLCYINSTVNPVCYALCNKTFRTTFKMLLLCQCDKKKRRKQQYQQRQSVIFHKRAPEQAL

Turning to `CCOC(=O)N1CCC2(CC(N3CCC(N(CC(F)(F)F)C(=O)OC)CC3)C2)C1` (single isomer, unassigned) [2-42 Isomer 2], the EC50 in assay [1] is > 20000 nM; in assay [2] (setting [5]), 100 nM; in assay [3] (setting [6]), 1580 nM; in assay [4] (setting [7]), > 20000 nM. Moreover, the Emax (commonly the size of the effect at its maximum, as opposed to the concentration needed) in assay [1] turned out to be 21%; in assay [2], 112%; in assay [3], 120%; in assay [4] (relative to ACh), 39%.
Consider `CCOC(=O)N1CCC2(CC(N3CCC(C(C)N(C(=O)CC)C4CC4)CC3)C2)C1` (single isomer, unassigned) [2-14 Isomer 2], for which the EC50 in assay [1] is > 20000 nM; in assay [2] (setting [5]), 100 nM; in assay [3] (setting [6]), 2510 nM; in assay [4] (setting [7]) it was > 20000 nM. The Emax is 12% in assay [1], 108% in assay [2], 47% in assay [3] and 5% in assay [4] (relative to ACh).
With `CCOC(=O)N1CCC2(CC(N3CCC(N(C(=O)CC)C4CC4)CC3)C2)C1` (single isomer, unassigned) [2-5 Isomer 2], the EC50 in assay [1] was > 20000 nM; in assay [2] (setting [5]) it was 100 nM; in assay [3] (setting [6]) it was 631 nM; in assay [4] (setting [7]) it was > 20000 nM. Also, the Emax in assay [1] is 5%; in assay [2], 91%; in assay [3], 57%; in assay [4] (relative to ACh) it was 5%.
Turning to `CCOC(=O)N1CCC2(CC(N3CCC(N(C(=O)C(F)(F)F)C4CC4)CC3)C2)C1` (single isomer, unassigned) [2-4 Isomer 2], the EC50 is > 20000 nM in assay [1], 31.6 nM in assay [2] (setting [5]), 200 nM in assay [3] (setting [6]) and > 20000 nM in assay [4] (setting [7]). The Emax in assay [1] turned out to be 3%; in assay [2] it was 114%; in assay [3], 104%; in assay [4] (relative to ACh), 9%.
For `CCOC(=O)N1CCC2(CC(N3CCC(N(CC(F)F)C(C)=O)CC3)C2)C1` (single isomer, unassigned) [2-24 Isomer 2], the EC50 was > 20000 nM in assay [1], 10 nM in assay [2] (setting [5]), 398 nM in assay [3] (setting [6]) and > 20000 nM in assay [4] (setting [7]). In addition, the Emax came to 5% in assay [1], 124% in assay [2], 91% in assay [3] and 17% in assay [4] (relative to ACh).
For the molecule `CCOC(=O)N1CCC2(CC(N3CCC(N(CC)C(C)=O)CC3)C2)C1` (single isomer, unassigned) [2-2 Isomer 2], the “pEC50 M2” value in assay [1] (CHO cells stably expressing human M2) was < 4.7. In addition, the “% Emax cf. ACh (M2)” value in assay [1] (CHO cells stably expressing human M2, relative to ACh) was found to be 18%. For the same molecule, in assay [2] (setting [5]), the “pEC50 M4” value worked out at 7.4 and the “% Emax cf. ACh (M4)” value is on record as 99%. Further, in assay [3] (setting [6]), the “pEC50 M1” value was 6.2 and the “% Emax cf. ACh (M1)” value is given as 91%. Moreover, the “pEC50 M3” value in assay [4] (setting [7]) is on record as < 4.7. Besides, the “% Emax cf. ACh (M3)” value in assay [4] (CHO cells stably expressing human M3, relative to ACh) worked out at 9%.
`CCOC(=O)N1CCC2(CC(N3CCC(N(CCOC)C4CC4)CC3)C2)C1` (single isomer, unassigned) [2-8 Isomer 2]: the EC50 is > 20000 nM in assay [1], 20 nM in assay [2] (setting [5]), > 20000 nM in assay [3] (setting [6]) and > 20000 nM in assay [4] (setting [7]). Moreover, the Emax in assay [1] was determined as 6%; in assay [2], 57%; in assay [3], 4%; in assay [4] (relative to ACh) it was 6%.
`CCOC(=O)N1CCC2(CC(N3CCC(N(CC(F)(F)F)C4CC4)CC3)C2)C1` (single isomer, unassigned) [2-48 Isomer 2]: the EC50 in assay [1] was 12600 nM; in assay [2] (setting [5]) it was 39.8 nM; in assay [3] (setting [6]), 39.8 nM; in assay [4] (setting [7]) it was 7940 nM. In addition, the Emax was determined as 68% in assay [1], 75% in assay [2], 117% in assay [3] and 53% in assay [4] (relative to ACh).
`CCOC(=O)N1CCC2(CC(N3CCC(N(C=O)CC)CC3)C2)C1` (single isomer, unassigned) [2-16 Isomer 2]: the EC50 in assay [1] was > 20000 nM; in assay [2] (setting [5]), 39.8 nM; in assay [3] (setting [6]) it was 398 nM; in assay [4] (setting [7]), > 20000 nM. In addition, the Emax in assay [1] stood at 5%; in assay [2] it was 91%; in assay [3], 89%; in assay [4] (relative to ACh), 2%.
As to `CCOC(=O)N1CCC2(CC(N3CCC(N(CC)CCC#N)CC3)C2)C1` (single isomer, unassigned) [2-55 Isomer 2], the EC50 is > 20000 nM in assay [1], 25.1 nM in assay [2] (setting [5]), > 20000 nM in assay [3] (setting [6]) and > 20000 nM in assay [4] (setting [7]). The Emax in assay [1] is 15%; in assay [2], 65%; in assay [3], 161%; in assay [4] (relative to ACh) it was 5%.
Take `CCOC(=O)N1CCC2(CC(N3CCC(N(C(=O)OC)C(C)C)CC3)C2)C1` (single isomer, unassigned) [2-41 Isomer 2]: the EC50 was > 20000 nM in assay [1], 15.8 nM in assay [2] (setting [5]), 316 nM in assay [3] (setting [6]) and > 20000 nM in assay [4] (setting [7]). The Emax in assay [1] stood at 57%; in assay [2], 127%; in assay [3] it was 109%; in assay [4] (relative to ACh) it was 1%.
As to `CCOC(=O)N1CCC2(CC(N3CCC(C(C)N(C(C)=O)C4CC4)CC3)C2)C1` (single isomer, unassigned) [2-13 Isomer 2], the EC50 was > 20000 nM in assay [1], 126 nM in assay [2] (setting [5]), > 20000 nM in assay [3] (setting [6]) and > 20000 nM in assay [4] (setting [7]). For the same molecule, the Emax in assay [1] was found to be 5%; in assay [2], 88%; in assay [3], 18%; in assay [4] (relative to ACh), 4%.
For `CCOC(=O)N1CCC2(CC(N3CCC(N(CCOC)CC(F)(F)F)CC3)C2)C1` (single isomer, unassigned) [2-52 Isomer 2], the EC50 in assay [1] is > 20000 nM; in assay [2] (setting [5]), 25.1 nM; in assay [3] (setting [6]) it was 398 nM; in assay [4] (setting [7]), > 20000 nM. The Emax was 7% in assay [1], 106% in assay [2], 93% in assay [3] and 7% in assay [4] (relative to ACh).
Regarding `CCOC(=O)N1CCC2(CC(N3CCC(N(CC4CC4)C(C)=O)CC3)C2)C1` (single isomer, unassigned) [2-20 Isomer 2], the EC50 in assay [1] is > 20000 nM; in assay [2] (setting [5]), 39.8 nM; in assay [3] (setting [6]), 200 nM; in assay [4] (setting [7]) it was > 20000 nM. Also, the Emax in assay [1] amounted to 60%; in assay [4] (relative to ACh), 33%. Further, the “% Emax cf. ACh (M4)” value in assay [2] (setting [5]) is 108%. For the same molecule, the “% Emax cf. ACh (M1)” value in assay [3] (setting [6]) is 113%.
